In patent publication US7691844B2, “Nonpeptide substituted spirobenzoazepines as vasopressin antagonists” (Ortho-McNeil Pharmaceutical, Inc., priority 2000, dated 2010):

Assays:
V1a = V1a (Homo sapiens, UniProt P37288); test: In-vitro receptor binding assay (3H-arginine-8-vasopressin), V1a
Method: (§1) (A) In-Vitro Binding Assay […] The reaction plates are allowed to sit at room temperature for one hour. The samples are filtered through Unifilter GF/C plates (presoaked in 0.3 polyethyleneimine). The plates are washed 5 times with cold physiological saline containing 0.05% Tween 20. After drying, the bottom of the filter plates are sealed and 0.025 ml of Microscint-20 is added to each filter. The top of the plate is sealed, and the plate is counted. Non-specific binding is determined by the addition of 1.25 μM […]-vasopressin in those wells. % Inh. is calculated as follows: […]

human V2 receptor = human V2 receptor (Homo sapiens, UniProt P30518); test: In-vitro receptor binding assay (3H-arginine-8-vasopressin), V2; settings: for inhibition at 10 µM / inhibition at 1 µM: read-out: Receptor Binding V2 (% Inh. @ concentration in μM)
Method: as §1

Sequence of human V2 receptor (P30518 whole entry): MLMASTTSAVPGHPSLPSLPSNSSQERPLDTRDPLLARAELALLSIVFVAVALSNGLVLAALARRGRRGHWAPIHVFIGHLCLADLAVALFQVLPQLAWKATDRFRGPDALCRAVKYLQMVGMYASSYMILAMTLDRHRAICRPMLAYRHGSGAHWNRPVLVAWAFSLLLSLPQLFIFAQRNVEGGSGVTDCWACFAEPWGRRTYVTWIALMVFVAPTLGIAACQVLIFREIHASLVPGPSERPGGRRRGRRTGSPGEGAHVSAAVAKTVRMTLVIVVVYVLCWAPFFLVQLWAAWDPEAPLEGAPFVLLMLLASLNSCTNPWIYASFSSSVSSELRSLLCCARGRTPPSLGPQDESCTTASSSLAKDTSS
Sequence of V1a (P37288 whole entry): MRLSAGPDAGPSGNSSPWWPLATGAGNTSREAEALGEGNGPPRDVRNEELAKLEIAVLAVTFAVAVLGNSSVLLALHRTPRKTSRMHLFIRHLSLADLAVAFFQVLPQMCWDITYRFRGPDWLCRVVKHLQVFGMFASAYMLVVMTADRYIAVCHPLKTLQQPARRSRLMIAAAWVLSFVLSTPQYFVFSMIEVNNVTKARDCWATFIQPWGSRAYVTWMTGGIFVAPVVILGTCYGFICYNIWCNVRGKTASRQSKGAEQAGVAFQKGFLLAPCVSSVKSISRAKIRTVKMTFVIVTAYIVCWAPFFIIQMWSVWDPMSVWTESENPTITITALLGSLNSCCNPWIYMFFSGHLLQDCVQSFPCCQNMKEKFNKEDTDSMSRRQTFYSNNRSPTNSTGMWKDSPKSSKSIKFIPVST

IC50 (V1a) [µM] | inhibition at 1 µM (human V2 receptor; @ 1 μM) [%] | further results | Structure (SMILES)
0.8 | – | inhibition at 10 µM (human V2 receptor; @ 10 μM): 26% | N#Cc1ccc(C(=O)N2CCC3(CCCCC3)Cc3ccccc32)cc1 [Compound 24]
10 | – | inhibition at 10 µM (human V2 receptor; @ 10 μM): 7% | Nc1ccc(C(=O)N2CCC3(CCCCC3)Cc3ccccc32)cc1 [Compound 25]
0.25 | – | Receptor Binding V2 (% Inh. @ concentration in μM) (human V2 receptor; @ 10 μM): 1% @ 10 | Cc1ccccc1C(=O)Nc1ccc(C(=O)N2CCC3(CCCCC3)Cc3ccccc32)cc1 [Compound 28]
0.013 | 8 | – | COc1ccc(C(=O)N2CCC3(CCCCC3=O)Cc3ccccc32)cc1 (stereo not drawn) [Compound 29]
0.035 | – | IC50 (human V2 receptor): 0.033 µM | O=C(Nc1ccc(C(=O)N2CCC3(CCCCC3=O)Cc3ccccc32)cc1)c1ccccc1-c1ccccc1 (stereo not drawn) [Compound 30, 4-(2-Phenylbenzoyl-4-aminobenzoyl)-4-aza-2′-oxo-[6,5]-spiro-[5,6]-benzododecane]
0.021 | – | IC50 (human V2 receptor): 0.054 µM | O=C(Nc1ccc(C(=O)N2CCC3(CCCCC3=O)Cc3ccccc32)cc1)c1ccccc1-c1ccccc1 (stereo not drawn) [Compound 31]
0.061 | – | IC50 (human V2 receptor): 0.028 µM | O=C(Nc1ccc(C(=O)N2CCC3(CCCCC3O)Cc3ccccc32)cc1)c1ccccc1-c1ccccc1 (stereo not drawn) [Compound 32]
1.4 | – | IC50 (human V2 receptor): > 25 µM | O=C(c1ccncc1)N1CCC2(C=CCCC2)Cc2ccccc21 (stereo not drawn) [Compound 35]
1.6 | – | Receptor Binding V2 (% Inh. @ concentration in μM) (human V2 receptor; @ 10 μM): 35% @ 10 | O=C(c1ccc(C(F)(F)F)cc1)N1CCC2(C=CCCC2)Cc2ccccc21 (stereo not drawn) [Compound 38]
1.1 | – | IC50 (human V2 receptor): 10 µM | O=C(c1ccc(Cl)cc1)N1CCC2(C=CCCC2)Cc2ccccc21 (stereo not drawn) [Compound 39]
0.57 | – | Receptor Binding V2 (% Inh. @ concentration in μM) (human V2 receptor; @ 10 μM): 27% @ 10 | O=C(c1ccc(I)cc1)N1CCC2(C=CCCC2)Cc2ccccc21 (stereo not drawn) [Compound 40]
0.32 | – | Receptor Binding V2 (% Inh. @ concentration in μM) (human V2 receptor; @ 10 μM): 0% @ 10 | Cc1ccc(C(=O)N2CCC3(C=CCCC3)Cc3ccccc32)cc1 (stereo not drawn) [Compound 41]
– | – | Receptor Binding V1a (% Inh. @ concentration in μM) (V1a; @ 10 μM): 0% @ 10; Receptor Binding V2 (% Inh. @ concentration in μM) (human V2 receptor; @ 10 μM): 24% @ 10 | NCc1ccc(C(=O)N2CCC3(C=CCCC3)Cc3ccccc32)cc1 (stereo not drawn) [Compound 42]
0.68 | – | inhibition at 10 µM (human V2 receptor; @ 10 μM): 42% | O=C(c1ccc(F)c(F)c1)N1CCC2(C=CCCC2)Cc2ccccc21 (stereo not drawn) [Compound 43]
0.11 | – | IC50 (human V2 receptor): 10 µM | CN(C)c1ccc(C(=O)N2CCC3(C=CCCC3)Cc3ccccc32)cc1 (stereo not drawn) [Compound 45]
3.5 | – | inhibition at 10 µM (human V2 receptor; @ 10 μM): 33% | O=C(c1cccc(Cl)c1)N1CCC2(C=CCCC2)Cc2ccccc21 (stereo not drawn) [Compound 46]
0.39 | – | Receptor Binding V2 (% Inh. @ concentration in μM) (human V2 receptor; @ 10 μM): 29% @ 10 | O=C(c1cc(F)cc(F)c1)N1CCC2(C=CCCC2)Cc2ccccc21 (stereo not drawn) [Compound 47]
0.38 | – | inhibition at 10 µM (human V2 receptor; @ 10 μM): 30% | O=C(c1ccc([N+](=O)[O-])cc1)N1CCC2(C=CCCC2)Cc2ccccc21 (stereo not drawn) [Compound 49, 4-(4-Nitrobenzoyl)-4-aza-[6,5]-spiro-[5,6]-benzododec-2′-ene]
– | – | Receptor Binding V1a (% Inh. @ concentration in μM) (V1a; @ 10 μM): 20% @ 10; Receptor Binding V2 (% Inh. @ concentration in μM) (human V2 receptor; @ 10 μM): 26% @ 10 | O=C(c1cc(C(F)(F)F)cc(C(F)(F)F)c1)N1CCC2(C=CCCC2)Cc2ccccc21 (stereo not drawn) [Compound 50]

IC50 (V1a) [µM] | inhibition at 1 µM (human V2 receptor; @ 1 μM) [%] | further results | Structure (SMILES)
5.6 | – | inhibition at 10 µM (human V2 receptor; @ 10 μM): 33% | O=C(c1cccc(Br)c1)N1CCC2(C=CCCC2)Cc2ccccc21 (stereo not drawn) [Compound 51]
0.53 | – | Receptor Binding V2 (% Inh. @ concentration in μM) (human V2 receptor; @ 10 μM): 28% @ 10 | N#Cc1cccc(C(=O)N2CCC3(C=CCCC3)Cc3ccccc32)c1 (stereo not drawn) [Compound 52]
– | – | Receptor Binding V1a (% Inh. @ concentration in μM) (V1a; @ 10 μM): 0% @ 10; Receptor Binding V2 (% Inh. @ concentration in μM) (human V2 receptor; @ 10 μM): 29% @ 10 | O=C(NCc1ccc(C(=O)N2CCC3(C=CCCC3)Cc3ccccc32)cc1)c1ccccc1 (stereo not drawn) [Compound 55]
4.3 | – | inhibition at 10 µM (human V2 receptor; @ 10 μM): 0% | O=C(c1cccc(C(F)(F)F)c1)N1CCC2(C=CCCC2)Cc2ccccc21 (stereo not drawn) [Compound 56]
0.34 | 4 | – | CC(=O)Nc1ccc(C(=O)N2CCC3(C=CCCC3)Cc3ccccc32)cc1 (stereo not drawn) [Compound 57]
0.051 | – | Receptor Binding V2 (% Inh. @ concentration in μM) (human V2 receptor; @ 1 μM): 14% @ 1 | CN(C)c1ccc(C(=O)N2CCC3(C=CCCC3)Cc3ccccc32)cc1 (stereo not drawn) [Compound 60]
– | – | Receptor Binding V1a (% Inh. @ concentration in μM) (V1a; @ 1 μM): 11% @ 1; Receptor Binding V2 (% Inh. @ concentration in μM) (human V2 receptor; @ 1 μM): 3% @ 1 | O=C(Nc1ccccc1)N1CCC2(C=CCCC2)Cc2ccccc21 (stereo not drawn) [Compound 61]
– | – | Receptor Binding V1a (% Inh. @ concentration in μM) (V1a; @ 1 μM): 5% @ 1; Receptor Binding V2 (% Inh. @ concentration in μM) (human V2 receptor; @ 1 μM): 4% @ 1 | O=C(Nc1ccc(F)cc1)N1CCC2(C=CCCC2)Cc2ccccc21 (stereo not drawn) [Compound 62]
– | – | Receptor Binding V1a (% Inh. @ concentration in μM) (V1a; @ 1 μM): 1% @ 1; Receptor Binding V2 (% Inh. @ concentration in μM) (human V2 receptor; @ 1 μM): 12% @ 1 | O=C(c1ccccc1-c1ccccc1)N1CCC2(C=CCCC2)Cc2ccccc21 (stereo not drawn) [Compound 64]
– | 11 | inhibition at 1 µM (V1a; @ 1 μM, read-out: Receptor Binding V1a (% Inh. @ concentration in μM)): 8% | O=C(O)c1ccc(C(=O)N2CCC3(C=CCCC3)Cc3ccccc32)cc1 (stereo not drawn) [Compound 65, 4-(4-Carboxybenzoyl)-4-aza-[6,5]-spiro-[5,6]-benzododec-2′-ene]
0.02 | – | IC50 (human V2 receptor): 0.39 µM | O=C(Nc1ccc(C(=O)N2CCC3(C=CCCC3)Cc3ccccc32)cc1)c1ccccc1 (stereo not drawn) [Compound 67]
0.81 | 3 | – | Nc1ccc(C(=O)N2CCC3(C=CCCC3)Cc3ccccc32)cc1 (stereo not drawn) [Compound 68]
0.01 | – | Receptor Binding V2 (% Inh. @ concentration in μM) (human V2 receptor; @ 1 μM): 21% @ 1 | Nc1ccc(C(=O)Nc2ccc(C(=O)N3CCC4(C=CCCC4)Cc4ccccc43)cc2)cc1 (stereo not drawn) [Compound 70]
0.03 | – | IC50 (human V2 receptor): 0.2 µM | COc1ccccc1C(=O)Nc1ccc(C(=O)N2CCC3(C=CCCC3)Cc3ccccc32)cc1 (stereo not drawn) [Compound 71]
0.04 | – | Receptor Binding V2 (% Inh. @ concentration in μM) (human V2 receptor; @ 1 μM): 16% @ 1 | CN(C)c1ccc(C(=O)N2CCC3(C=CCCC3)Cc3cc(Cl)c(Cl)cc32)cc1 (stereo not drawn) [Compound 72]
0.09 | – | Receptor Binding V2 (% Inh. @ concentration in μM) (human V2 receptor; @ 1 μM): 10% @ 1 | CCCCOc1ccc(C(=O)N2CCC3(C=CCCC3)Cc3cc(Cl)c(Cl)cc32)cc1 (stereo not drawn) [Compound 73]
0.19 | – | Receptor Binding V2 (% Inh. @ concentration in μM) (human V2 receptor; @ 1 μM): 27% @ 1 | COc1ccc(C(=O)N2CCC3(C=CCCC3)Cc3ccccc32)c(OC)c1 (stereo not drawn) [Compound 74]
0.07 | 1 | – | COc1ccc(C(=O)N2CCC3(C=CCCC3)Cc3ccccc32)cc1OC (stereo not drawn) [Compound 75]
1 | 0 | – | CCCCCCCOc1ccc(C(=O)N2CCC3(C=CCCC3)Cc3ccccc32)cc1 (stereo not drawn) [Compound 76]

IC50 (V1a) [µM] | inhibition at 1 µM (human V2 receptor; @ 1 μM) [%] | further results | Structure (SMILES)
0.9 | 16 | – | O=C(c1ccc(OC(F)(F)F)cc1)N1CCC2(C=CCCC2)Cc2ccccc21 (stereo not drawn) [Compound 77]
0.51 | 3 | – | O=C(c1ccc(O)cc1)N1CCC2(C=CCCC2)Cc2ccccc21 (stereo not drawn) [Compound 78]
0.19 | 19 | – | CC(C)Nc1ccc(C(=O)N2CCC3(C=CCCC3)Cc3ccccc32)cc1 (stereo not drawn) [Compound 79]
0.14 | 47 | – | Cc1ccc(C(=O)Nc2ccc(C(=O)N3CCC4(C=CCCC4)Cc4ccccc43)cc2)cc1C (stereo not drawn) [Compound 81]
0.02 | 41 | – | O=C(Nc1ccccc1)c1ccc(C(=O)N2CCC3(C=CCCC3)Cc3ccccc32)cc1 (stereo not drawn) [Compound 82, 4-(4-Anilinocarbonylbenzoyl)-4-aza-[6,5]-spiro-[5,6]-benzododec-2′-ene]
0.17 | 25 | – | O=C(Nc1ccccc1)Nc1ccc(C(=O)N2CCC3(C=CCCC3)Cc3ccccc32)cc1 (stereo not drawn) [Compound 83]
– | – | Receptor Binding V1a (% Inh. @ concentration in μM) (V1a; @ 1 μM): 35% @ 1; Receptor Binding V2 (% Inh. @ concentration in μM) (human V2 receptor; @ 1 μM): 2% @ 1 | O=C(Nc1ccc(C(=O)N2CCC3(C=CCCC3)Cc3ccccc32)cc1)c1ccc(-c2ccccc2)cc1 (stereo not drawn) [Compound 84]
0.05 | – | IC50 (human V2 receptor): 0.38 µM | Cc1cccc(C(=O)Nc2ccc(C(=O)N3CCC4(C=CCCC4)Cc4ccccc43)cc2)c1 (stereo not drawn) [Compound 85]
0.065 | 10 | – | CC(C)COc1ccc(C(=O)N2CCC3(C=CCCC3)Cc3ccccc32)cc1 (stereo not drawn) [Compound 86]
0.074 | 47 | – | Cc1ccc(C(=O)Nc2ccc(C(=O)N3CCC4(C=CCCC4)Cc4ccccc43)cc2)cc1 (stereo not drawn) [Compound 87]
0.066 | 0 | – | CSc1ccc(C(=O)N2CCC3(C=CCCC3)Cc3ccccc32)cc1 (stereo not drawn) [Compound 92]
0.015 | 26 | – | CSc1cccc(C(=O)Nc2ccc(C(=O)N3CCC4(C=CCCC4)Cc4ccccc43)cc2)c1 (stereo not drawn) [Compound 93]
0.02 | 10 | – | C[S+]([O-])c1ccc(C(=O)N2CCC3(C=CCCC3)Cc3ccccc32)cc1 (stereo not drawn) [Compound 94]
– | – | Receptor Binding V1a (% Inh. @ concentration in μM) (V1a; @ 1 μM): 27% @ 1; Receptor Binding V2 (% Inh. @ concentration in μM) (human V2 receptor; @ 1 μM): 0% @ 1 | C[S+]([O-])c1ccc(C(=O)Nc2ccc(C(=O)N3CCC4(C=CCCC4)Cc4ccccc43)cc2)cc1 (stereo not drawn) [Compound 95]
0.012 | – | IC50 (human V2 receptor): 0.18 µM | O=C(Nc1ccc(C(=O)N2CCC3(C=CCCC3)Cc3ccccc32)cc1)c1ccccc1Cl (stereo not drawn) [Compound 96]
0.027 | – | IC50 (human V2 receptor): 0.2 µM | Cc1ccccc1NC(=O)c1ccc(C(=O)N2CCC3(C=CCCC3)Cc3ccccc32)cc1 (stereo not drawn) [Compound 98]
0.046 | – | IC50 (human V2 receptor): 0.159 µM | O=C(Nc1ccc(C(=O)N2CCC3(C=CCCC3)Cc3ccccc32)cc1)c1c(Cl)cccc1Cl (stereo not drawn) [Compound 102]
0.016 | – | IC50 (human V2 receptor): 0.274 µM | O=C(Nc1ccc(C(=O)N2CCC3(C=CCCC3)Cc3ccccc32)cc1)c1ccc(Cl)cc1Cl (stereo not drawn) [Compound 103]
0.051 | 36 | – | O=C(Nc1ccc(C(=O)N2CCC3(C=CCCC3)Cc3ccccc32)cc1)c1ccncc1 (stereo not drawn) [Compound 104]
